As a reminder, the Ki is the equilibrium dissociation constant of an inhibitor or competing ligand from its target.

The test in a line: Binding to the recombinant human alpha1 receptor (prazosin [3H], CHO cell membranes).

From the text: The bound fraction was separated by filtration and washing in cooled TRIS+NaCl+KCl buffer. […] The bound fraction was separated by filtration and washing in cooled TRIS+NaCl+KCl buffer. […] The bound fraction was separated by filtration and washing in cooled TRIS buffer.

With `CCN(CC)C(=O)C1(c2ccccc2)CC1CN` (centres unmarked) [dextromilnacipran], the Ki was found to be 3.4 µM. With `CCN(CC)C(=O)[C@@]1(c2ccccc2)C[C@H]1CN` [levomilnacipran], the Ki came out at 110 µM.
